In ChEMBL document CHEMBL1128768, “Structure-activity relationships of tricyclic quinoxalinediones as potent antagonists for the glycine binding site of the NMDA receptor 1” (Bioorg Med Chem Lett, 1995):

Target: Glutamate receptor ionotropic, NMDA 1 (Rattus norvegicus, UniProt P35439)
Assay: Affinity measured by using [3H]5,7-dichlorokynurenic acid (DCKA) for the glycine binding site of NMDA receptor

Ki [µM] | SMILES
0.0014 | CC[C@H]1Cc2cc(Br)cc3[nH]c(=O)c(=O)n(c23)[C@@H]1CC(=O)O
0.0038 | CC[C@H]1Cc2cc(Br)cc3[nH]c(=O)c(=O)n(c23)[C@@H]1CC(=O)Nc1ccccc1
0.003 | C[C@H]1Cc2cc(Br)cc3[nH]c(=O)c(=O)n(c23)[C@@H]1CC(=O)Nc1ccccc1
0.0383 | C[C@@H]1C[C@@H](CC(=O)O)n2c(=O)c(=O)[nH]c3cc(Br)cc1c32
0.042 | C[C@H]1C[C@@H](CC(=O)O)n2c(=O)c(=O)[nH]c3cc(Br)cc1c32
0.0033 | C[C@H]1Cc2cc(Br)cc3[nH]c(=O)c(=O)n(c23)[C@@H]1CC(=O)O
0.0171 | C[C@H]1C[C@@H](CC(=O)Nc2ccccc2)n2c(=O)c(=O)[nH]c3cc(Br)cc1c32
0.0084 | CC(C)[C@H]1Cc2cc(Br)cc3[nH]c(=O)c(=O)n(c23)[C@@H]1CC(=O)O
0.451 | C[C@@]1(CC(=O)O)CCc2cc(Br)cc3[nH]c(=O)c(=O)n1c23
0.665 | CC(C(=O)Nc1ccccc1)[C@@H]1CCc2cc(Br)cc3[nH]c(=O)c(=O)n1c23 (stereo in doubt; 23b)
0.241 | CC(C(=O)O)[C@@H]1CCc2cc(Br)cc3[nH]c(=O)c(=O)n1c23 (stereo in doubt; 23a)
0.3 | CC(C(=O)O)[C@@H]1CCc2cc(Br)cc3[nH]c(=O)c(=O)n1c23 (stereo in doubt; 24a)
0.0296 | C[C@@H]1Cc2cc(Br)cc3[nH]c(=O)c(=O)n(c23)[C@@H]1CC(=O)O
0.0026 | O=C(C[C@@H]1CCc2cc(Br)cc3[nH]c(=O)c(=O)n1c23)Nc1ccccc1
0.0074 | C[C@@H]1C[C@@H](CC(=O)Nc2ccccc2)n2c(=O)c(=O)[nH]c3cc(Br)cc1c32
0.76 | C[C@@]1(CC(=O)Nc2ccccc2)CCc2cc(Br)cc3[nH]c(=O)c(=O)n1c23
0.021 | C[C@@H]1Cc2cc(Br)cc3[nH]c(=O)c(=O)n(c23)[C@@H]1CC(=O)Nc1ccccc1
0.59 | CC(C(=O)Nc1ccccc1)[C@@H]1CCc2cc(Br)cc3[nH]c(=O)c(=O)n1c23 (stereo in doubt; 24b)
0.0099 | O=C(O)C[C@@H]1CCc2cc(Br)cc3[nH]c(=O)c(=O)n1c23
